ChEMBL document CHEMBL3885861, “Open TG-GATES”

Species: Rattus norvegicus
Assay: Open TG-GATES - Regimen: Daily Repeat
Type: toxicity, organism-based, Sprague-Dawley
Parameters: regimen Daily Repeat, gender Male, age 6 weeks
Conditions: in vivo, po, route gavage; for APTT / Bas / Eos / Fbg / Hb / Lym / MCH / MCHC / MCV / Mono / Neu / PT / Plat / RBC / Ret / WBC: tissue Blood; for KIDNEY_L / KIDNEY_R / KIDNEY_TOTAL: tissue Kidney; for LIVER: tissue Liver; for ALP / ALT / AST / BUN / CRE / Ca / Cl / DBIL / GLC / IP / K / LDH / Na / PL / RALB / TBIL / TC / TG / TP / gamma-GTP: tissue Plasma
[1] = 0 mg/kg, 72 h, dose level Control, time 3 day
[2] = 0 mg/kg, […], dose level Control, time 7 day
[3] = 0 mg/kg, […], dose level Control, time 14 day
[4] = 0 mg/kg, […], dose level Control, time 28 day
[5] = 2 mg/kg, 72 h, dose level Low, time 3 day
[6] = 2 mg/kg, […], dose level Low, time 7 day
[7] = 2 mg/kg, […], dose level Low, time 14 day
[8] = 2 mg/kg, […], dose level Low, time 28 day

OCCN1CCN(CCCN2c3ccccc3Sc3ccc(C(F)(F)F)cc32)CC1 [FLUPHENAZINE]
TERMINAL_BW [1]: 233.9 g
APTT [1]: 16.9 s
Bas [1]: 0%
Eos [1]: 1%
Fbg [1]: 232.5 mg/dL
Hb [1]: 13.6 g/dL
Lym [1]: 77%
MCH [1]: 21.5 pg
MCHC [1]: 33.3%
MCV [1]: 64.4 fL
Mono [1]: 7.2%
Neu [1]: 15%
PT [1]: 12 s
Plat [1]: 126.3 x10_4/uL
RBC [1]: 632.2 x10_4/ul
Ret [1]: 6.2%
WBC [1]: 99.4 x10_2/uL
KIDNEY_L [1]: 1.1 g
KIDNEY_R [1]: 1.1 g
KIDNEY_TOTAL [1]: 2.2 g
LIVER [1]: 11.9 g
ALP [1]: 922 IU/L
ALT [1]: 35.2 IU/L
AST [1]: 60.2 IU/L
BUN [1]: 17.2 mg/dL
CRE [1]: 0.6 mg/dL
Ca [1]: 10.8 mg/dL
Cl [1]: 104.5 meq/L
DBIL [1]: 0.035 mg/dL
GLC [1]: 185 mg/dL
IP [1]: 8.5 mg/dL
K [1]: 4.9 meq/L
LDH [1]: 77.2 IU/L
Na [1]: 137.8 meq/L
PL [1]: 163 mg/dL
RALB [1]: 4 g/dL
TBIL [1]: 0.3 mg/dL
TC [1]: 86.2 mg/dL
TG [1]: 96.8 mg/dL
TP [1]: 5.8 g/dL
gamma-GTP [1]: 0.5 IU/L
TERMINAL_BW [2]: 262.6 g
TERMINAL_BW [3]: 300.9 g
TERMINAL_BW [4]: 402.6 g
APTT [2]: 16.3 s
Bas [2]: 0%
Eos [2]: 1%
Fbg [2]: 239.4 mg/dL
Hb [2]: 13.5 g/dL
Lym [2]: 80.6%
MCH [2]: 21.6 pg
MCHC [2]: 33.5%
MCV [2]: 64.4 fL
Mono [2]: 4%
Neu [2]: 15.2%
PT [2]: 11.9 s
Plat [2]: 114.7 x10_4/uL
RBC [2]: 627.6 x10_4/ul
Ret [2]: 5.2%
WBC [2]: 114 x10_2/uL
APTT [3]: 17.2 s
Bas [3]: 0%
Eos [3]: 0.6%
Fbg [3]: 235.6 mg/dL
Hb [3]: 14.2 g/dL
Lym [3]: 82.8%
MCH [3]: 20.3 pg
MCHC [3]: 33.3%
MCV [3]: 61.1 fL
Mono [3]: 5.4%
Neu [3]: 11%
PT [3]: 11.7 s
Plat [3]: 107.2 x10_4/uL
RBC [3]: 699.2 x10_4/ul
Ret [3]: 3.7%
WBC [3]: 145.4 x10_2/uL
APTT [4]: 17.2 s
Bas [4]: 0%
Eos [4]: 1%
Fbg [4]: 231 mg/dL
Hb [4]: 15.2 g/dL
Lym [4]: 84.8%
MCH [4]: 19.7 pg
MCHC [4]: 33.4%
MCV [4]: 58.8 fL
Mono [4]: 4.8%
Neu [4]: 9.8%
PT [4]: 11.8 s
Plat [4]: 92.5 x10_4/uL
RBC [4]: 774 x10_4/ul
Ret [4]: 2.7%
WBC [4]: 160.8 x10_2/uL
KIDNEY_L [2]: 1.2 g
KIDNEY_R [2]: 1.2 g
KIDNEY_TOTAL [2]: 2.3 g
KIDNEY_L [3]: 1.2 g
KIDNEY_R [3]: 1.2 g
KIDNEY_TOTAL [3]: 2.4 g
KIDNEY_L [4]: 1.5 g
KIDNEY_R [4]: 1.5 g
KIDNEY_TOTAL [4]: 2.9 g
LIVER [2]: 13.1 g
LIVER [3]: 13.9 g
LIVER [4]: 17.1 g
ALP [2]: 774.2 IU/L
ALT [2]: 30.4 IU/L
AST [2]: 61.6 IU/L
BUN [2]: 18.4 mg/dL
CRE [2]: 0.5 mg/dL
Ca [2]: 10.5 mg/dL
Cl [2]: 106.2 meq/L
DBIL [2]: 0.016 mg/dL
GLC [2]: 196.2 mg/dL
IP [2]: 8.4 mg/dL
K [2]: 4.6 meq/L
LDH [2]: 82.6 IU/L
Na [2]: 138.8 meq/L
PL [2]: 156 mg/dL
RALB [2]: 3.9 g/dL
TBIL [2]: 0.3 mg/dL
TC [2]: 79.4 mg/dL
TG [2]: 101 mg/dL
TP [2]: 5.9 g/dL
gamma-GTP [2]: 1.6 IU/L
ALP [3]: 734.4 IU/L
ALT [3]: 30.6 IU/L
AST [3]: 55.8 IU/L
BUN [3]: 19.8 mg/dL
CRE [3]: 0.5 mg/dL
Ca [3]: 11 mg/dL
Cl [3]: 102.6 meq/L
DBIL [3]: 0 mg/dL
GLC [3]: 186.6 mg/dL
IP [3]: 8.5 mg/dL
K [3]: 4.5 meq/L
LDH [3]: 97.4 IU/L
Na [3]: 135.8 meq/L
PL [3]: 166 mg/dL
RALB [3]: 4.2 g/dL
TBIL [3]: 0.3 mg/dL
TC [3]: 77 mg/dL
TG [3]: 181.8 mg/dL
TP [3]: 6.2 g/dL
gamma-GTP [3]: 1.4 IU/L
ALP [4]: 649.8 IU/L
ALT [4]: 32.2 IU/L
AST [4]: 57 IU/L
BUN [4]: 20.6 mg/dL
CRE [4]: 0.6 mg/dL
Ca [4]: 10.8 mg/dL
Cl [4]: 104.8 meq/L
DBIL [4]: 0.01 mg/dL
GLC [4]: 197.4 mg/dL
IP [4]: 7 mg/dL
K [4]: 4.5 meq/L
LDH [4]: 80 IU/L
Na [4]: 140.8 meq/L
PL [4]: 171.6 mg/dL
RALB [4]: 4.1 g/dL
TBIL [4]: 0.3 mg/dL
TC [4]: 74.6 mg/dL
TG [4]: 216 mg/dL
TP [4]: 6.4 g/dL
gamma-GTP [4]: 1 IU/L
TERMINAL_BW [5]: 226 g
APTT [5]: 16.5 s
Bas [5]: 0%
Eos [5]: 1%
Fbg [5]: 221.4 mg/dL
Hb [5]: 13.7 g/dL
Lym [5]: 80%
MCH [5]: 22.3 pg
MCHC [5]: 33.6%
MCV [5]: 66.3 fL
Mono [5]: 6.8%
Neu [5]: 12.6%
PT [5]: 12.2 s
Plat [5]: 101.3 x10_4/uL
RBC [5]: 613 x10_4/ul
Ret [5]: 5.3%
WBC [5]: 100.9 x10_2/uL
KIDNEY_L [5]: 1 g
KIDNEY_R [5]: 1 g
KIDNEY_TOTAL [5]: 2 g
LIVER [5]: 11.4 g
ALP [5]: 869.2 IU/L
ALT [5]: 36 IU/L
AST [5]: 69.6 IU/L
BUN [5]: 20.4 mg/dL
CRE [5]: 0.5 mg/dL
Ca [5]: 11 mg/dL
Cl [5]: 104.6 meq/L
DBIL [5]: 0.008 mg/dL
GLC [5]: 194.6 mg/dL
IP [5]: 8.5 mg/dL
K [5]: 4.8 meq/L
LDH [5]: 156.6 IU/L
Na [5]: 137.6 meq/L
PL [5]: 172.8 mg/dL
RALB [5]: 4.1 g/dL
TBIL [5]: 0.3 mg/dL
TC [5]: 85.2 mg/dL
TG [5]: 95 mg/dL
TP [5]: 5.9 g/dL
gamma-GTP [5]: 0.6 IU/L
TERMINAL_BW [6]: 257.2 g
TERMINAL_BW [7]: 299.4 g
TERMINAL_BW [8]: 362.5 g
APTT [6]: 16.8 s
Bas [6]: 0%
Eos [6]: 0.8%
Fbg [6]: 219.6 mg/dL
Hb [6]: 13.7 g/dL
Lym [6]: 83%
MCH [6]: 21 pg
MCHC [6]: 33.6%
MCV [6]: 62.5 fL
Mono [6]: 3%
Neu [6]: 13.2%
PT [6]: 12.1 s
Plat [6]: 103.7 x10_4/uL
RBC [6]: 652.6 x10_4/ul
Ret [6]: 4.5%
WBC [6]: 106.2 x10_2/uL
APTT [7]: 16.8 s
Bas [7]: 0%
Eos [7]: 0.4%
Fbg [7]: 223.2 mg/dL
Hb [7]: 14.3 g/dL
Lym [7]: 83.2%
MCH [7]: 20.6 pg
MCHC [7]: 33.5%
MCV [7]: 61.4 fL
Mono [7]: 5.4%
Neu [7]: 11%
PT [7]: 11.9 s
Plat [7]: 108 x10_4/uL
RBC [7]: 696 x10_4/ul
Ret [7]: 3%
WBC [7]: 149.6 x10_2/uL
APTT [8]: 17.2 s
Bas [8]: 0%
Eos [8]: 1%
Fbg [8]: 211.6 mg/dL
Hb [8]: 14.9 g/dL
Lym [8]: 84%
MCH [8]: 19.3 pg
MCHC [8]: 33.4%
MCV [8]: 57.7 fL
Mono [8]: 3.6%
Neu [8]: 11.8%
PT [8]: 12.1 s
Plat [8]: 95.6 x10_4/uL
RBC [8]: 775.2 x10_4/ul
Ret [8]: 2.4%
WBC [8]: 160.4 x10_2/uL
KIDNEY_L [6]: 1.1 g
KIDNEY_R [6]: 1.1 g
KIDNEY_TOTAL [6]: 2.2 g
KIDNEY_L [7]: 1.2 g
KIDNEY_R [7]: 1.1 g
KIDNEY_TOTAL [7]: 2.3 g
KIDNEY_L [8]: 1.3 g
KIDNEY_R [8]: 1.3 g
KIDNEY_TOTAL [8]: 2.6 g
LIVER [6]: 12.4 g
LIVER [7]: 13.5 g
LIVER [8]: 15.3 g
ALP [6]: 761.6 IU/L
ALT [6]: 30.4 IU/L
AST [6]: 60.4 IU/L
BUN [6]: 18.8 mg/dL
CRE [6]: 0.5 mg/dL
Ca [6]: 10.4 mg/dL
Cl [6]: 105.2 meq/L
DBIL [6]: 0.004 mg/dL
GLC [6]: 187.6 mg/dL
IP [6]: 7.9 mg/dL
K [6]: 4.7 meq/L
LDH [6]: 83.6 IU/L
Na [6]: 137.6 meq/L
PL [6]: 157.6 mg/dL
RALB [6]: 4 g/dL
TBIL [6]: 0.3 mg/dL
TC [6]: 74 mg/dL
TG [6]: 146.6 mg/dL
TP [6]: 5.9 g/dL
gamma-GTP [6]: 1.4 IU/L
ALP [7]: 728.4 IU/L
ALT [7]: 28 IU/L
AST [7]: 56.6 IU/L
BUN [7]: 19.6 mg/dL
CRE [7]: 0.6 mg/dL
Ca [7]: 10.8 mg/dL
Cl [7]: 103.4 meq/L
DBIL [7]: 0 mg/dL
GLC [7]: 179.4 mg/dL
IP [7]: 7.7 mg/dL
K [7]: 4.4 meq/L
LDH [7]: 92.4 IU/L
Na [7]: 135.2 meq/L
PL [7]: 147.8 mg/dL
RALB [7]: 4.1 g/dL
TBIL [7]: 0.2 mg/dL
TC [7]: 66.8 mg/dL
TG [7]: 160.2 mg/dL
TP [7]: 6 g/dL
gamma-GTP [7]: 1 IU/L
ALP [8]: 528.8 IU/L
ALT [8]: 29.6 IU/L
AST [8]: 59.6 IU/L
BUN [8]: 19.8 mg/dL
CRE [8]: 0.6 mg/dL
Ca [8]: 10.5 mg/dL
Cl [8]: 106.8 meq/L
DBIL [8]: 0.002 mg/dL
GLC [8]: 179.2 mg/dL
IP [8]: 6.6 mg/dL
K [8]: 4.4 meq/L
LDH [8]: 79.6 IU/L
Na [8]: 139.8 meq/L
PL [8]: 151.4 mg/dL
RALB [8]: 4.1 g/dL
TBIL [8]: 0.2 mg/dL
TC [8]: 73.2 mg/dL
TG [8]: 131 mg/dL
TP [8]: 6.3 g/dL
gamma-GTP [8]: 2 IU/L
